What all share (test): inhibition of tumour cell growth, NCI panel, 48 h
In assay [1] the test system is HL-60.
In assay [2] the test system is U-251.
Assay [3] relates to ACHN.
The test system of assay [4] is OVCAR-3.
Assay [5] deals with HOP-62.
In assay [6] the test system is NCI-H23.
The subject of assay [7] is Hs-578T.
Assay [8] has as its system PC-3.
The test system of assay [9] is RPMI-8226.
The test system of assay [10] is MOLT-4.
Assay [11] has as its system SNB-75.
The subject of assay [12] is HCT-116.
Assay [13] relates to UACC-62.
The subject of assay [14] is Malme-3M.
Assay [15] deals with LOX IMVI.
Assay [16] concerns RXF 393.
The subject of assay [17] is T47D.
Assay [18] has as its system HT-29.
The subject of assay [19] is MCF7.

SMILES strings stand for the structures.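 These data come from cells grown in 96-well plates and exposed to compound for 48 hours at five concentrations. At the GI50, growth is halved.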 Calls of active or inactive are those of the source. Cut-off read from the data, not from the text of the source: active = GI50 up to about 1.1 µM and inactive = higher.

`O=[N+]([O-])/C=C/c1cc2ccc3ccccc3c2[nH]1`: the GI50 in [1] was 2.12 µM (inactive); in assay [2], 1.34 µM (inactive); in assay [3], 1.54 µM (inactive); in assay [4], 1.55 µM (inactive); in assay [5], 1.98 µM (inactive); in assay [6], 2.02 µM (inactive). In addition, the GI50 in assay [7] was 3.56 µM (inactive); in assay [8], 1.46 µM (inactive); in assay [9], 0.229 µM (active); in assay [10], 0.776 µM (active); in assay [11], 1.79 µM (inactive); in assay [12], 1.52 µM (inactive). For the same compound, the GI50 is 1.68 µM (inactive) in assay [13]; 1.55 µM (inactive) in [14]; 1.23 µM (inactive) in [15]; 1.43 µM (inactive) in assay [16]; 1.31 µM (inactive) in assay [17]; 2.19 µM (inactive) in assay [18]. Also, the GI50 in [19] is 1.44 µM (inactive).

Take `C/C(=N\Nc1nc2cc(C)ccc2s1)c1ccccn1`: the GI50 is 0.158 µM (active) in assay [1]; 0.946 µM (active) in assay [2]; 0.25 µM (active) in [3]; 0.441 µM (active) in assay [4]; 0.294 µM (active) in [5]; 0.39 µM (active) in assay [6]. For the same compound, the GI50 in [7] was 1.29 µM (inactive); in [8], 0.593 µM (active); in [9] it was 0.273 µM (active); in assay [10], < 0.0246 µM (active); in [11], 2.23 µM (inactive); in assay [12], 0.213 µM (active). Further, the GI50 in assay [13] was 0.596 µM (active); in [14], 0.332 µM (active); in [15], 0.481 µM (active); in [16] it was 3.63 µM (inactive); in [17], 0.589 µM (active); in [18], 0.121 µM (active). In assay [19], the GI50 was 0.119 µM (active).

As for `COC(=O)CCCC(=O)/C(=N\Nc1ccc(Cl)cc1)Nc1c(Cl)cccc1Cl`, the GI50 in assay [1] is 7.06 µM (inactive); in assay [2], 55.5 µM (inactive); in [3], > 87.9 µM (inactive); in [4], 55.5 µM (inactive); in assay [5] it was > 67.6 µM (inactive); in assay [6] it was 48.2 µM (inactive). The GI50 in assay [7] is 42.8 µM (inactive); in assay [8], 24 µM (inactive); in [9], 21.8 µM (inactive); in [10], 26 µM (inactive); in assay [11] it was 27.5 µM (inactive); in assay [12] it was 38.9 µM (inactive). In addition, the GI50 is 60 µM (inactive) in assay [13]; 97.1 µM (inactive) in assay [14]; 64.1 µM (inactive) in assay [15]; 8.69 µM (inactive) in [16]; > 46.5 µM (inactive) in [17]; 56.6 µM (inactive) in [18]. In addition, the GI50 in [19] was 53.8 µM (inactive).

For the compound `COc1ccc2c3c(ccc2c1)NC(C(=O)O)CC3` (centres undefined), the GI50 in [1] is 26.1 µM (inactive); in assay [2], 38.2 µM (inactive); in assay [3] it was 73.8 µM (inactive); in assay [4], 35.6 µM (inactive); in [5] it was 80.5 µM (inactive); in [6], > 100 µM (inactive). Moreover, the GI50 in assay [7] is 50.4 µM (inactive); in assay [8], 74.6 µM (inactive); in [9] it was 17.1 µM (inactive); in assay [10] it was 19.5 µM (inactive); in assay [11], 57.7 µM (inactive); in [12], 80.2 µM (inactive). Moreover, the GI50 was 40.5 µM (inactive) in assay [13]; > 100 µM (inactive) in assay [14]; 46.5 µM (inactive) in assay [15]; > 100 µM (inactive) in assay [16]; 26.9 µM (inactive) in assay [17]; 45.2 µM (inactive) in [18]. In addition, the GI50 in [19] is 36.4 µM (inactive).

For the compound `CC1=C(C(=O)OC(C)C)C(c2cccc([N+](=O)[O-])c2)C(C(=O)OC(CO[N+](=O)[O-])CO[N+](=O)[O-])=C(C)N1` (centres undefined), the GI50 in assay [1] is 2 µM (inactive); in [2], 2.24 µM (inactive); in [3], 3.44 µM (inactive); in assay [4], 3.45 µM (inactive); in assay [5], 3.85 µM (inactive); in assay [6] it was 5.37 µM (inactive). Besides, the GI50 in [7] is 3.51 µM (inactive); in assay [8], 2.05 µM (inactive); in assay [9] it was 1.05 µM (active); in [10], 1.85 µM (inactive); in assay [11] it was 2.66 µM (inactive); in assay [12] it was 2.66 µM (inactive). The GI50 in assay [13] was 2.65 µM (inactive); in [14], 5.15 µM (inactive); in [15] it was 3.08 µM (inactive); in [16], 7.52 µM (inactive); in assay [17] it was 3.99 µM (inactive); in [18], 3.21 µM (inactive). In assay [19], the GI50 was 0.61 µM (active).

Regarding `N#Cc1nc(-c2ccccc2C(=O)O)oc1N`, the GI50 in assay [1], in assay [2], in [3], in assay [4], in [5] and in assay [6] was > 100 µM (inactive) each time. The GI50 in assay [7], in assay [8], in assay [9], in assay [10], in [11] and in assay [12] was > 100 µM (inactive) throughout. Also, the GI50 in [13], in [14], in assay [15], in [16], in assay [17] and in assay [18] was > 100 µM (inactive) each time. In addition, the GI50 in assay [19] was > 100 µM (inactive).

As to `COC(=O)[C@@H]1C[C@]2(CC=C(C)C)c3ccccc3N(S(=O)(=O)c3ccccc3)[C@@H]2N1C(=O)OC`, the GI50 is 9.14 µM (inactive) in [1]; 13.3 µM (inactive) in assay [2]; 25.5 µM (inactive) in [3]; 19.4 µM (inactive) in [4]; 26.8 µM (inactive) in assay [5]; > 100 µM (inactive) in assay [6]. In addition, the GI50 was 10.6 µM (inactive) in assay [7]; 17 µM (inactive) in assay [8]; 6.67 µM (inactive) in assay [9]; 8.2 µM (inactive) in assay [10]; 13.1 µM (inactive) in [11]; 20 µM (inactive) in [12]. Besides, the GI50 in [13] is 4.5 µM (inactive); in assay [14] it was 32.5 µM (inactive); in [15], 21.5 µM (inactive); in assay [16] it was 8.22 µM (inactive); in [17], 5.94 µM (inactive); in [18], 23.5 µM (inactive). Moreover, in assay [19], the GI50 was 8.87 µM (inactive).

Take `Cc1nc(N)nc(N)c1N1CCN(Cc2ccccc2)CC1`: the GI50 was 25.1 µM (inactive) in assay [1]; 48.8 µM (inactive) in assay [2]; 12.6 µM (inactive) in assay [3]; 47.8 µM (inactive) in [4]; 42.4 µM (inactive) in assay [5]; 17.1 µM (inactive) in [6]. The GI50 in [7] is 48 µM (inactive); in assay [8], 7.48 µM (inactive); in assay [9] it was > 39 µM (inactive); in assay [10], 29.7 µM (inactive); in assay [11], > 52.5 µM (inactive); in assay [12] it was 4.71 µM (inactive). Further, the GI50 in [13] is 30.5 µM (inactive); in assay [14], 14.2 µM (inactive); in assay [15], 8.15 µM (inactive); in assay [16], 13.4 µM (inactive); in assay [17], > 100 µM (inactive); in assay [18], 11.8 µM (inactive). The GI50 in [19] was 27.1 µM (inactive).

For `O=c1c(Cc2ccccc2)c(-c2ccccc2)[nH]n1C1=NCCN1`, the GI50 in [1] is 15.1 µM (inactive); in assay [2] it was 33.6 µM (inactive); in assay [3] it was 29.3 µM (inactive); in assay [4] it was 24.4 µM (inactive); in assay [5] it was 56 µM (inactive); in [6], 62.5 µM (inactive). The GI50 in assay [7] was 39.4 µM (inactive); in assay [8], 36.8 µM (inactive); in [9], 47 µM (inactive); in assay [10] it was 35.5 µM (inactive); in assay [11] it was 22 µM (inactive); in assay [12], 24.6 µM (inactive). Besides, the GI50 is 32.2 µM (inactive) in assay [13]; 25.4 µM (inactive) in assay [14]; 15.5 µM (inactive) in assay [15]; 92.9 µM (inactive) in assay [16]; 45.3 µM (inactive) in assay [17]; 24.2 µM (inactive) in [18]. Also, the GI50 in assay [19] was 40.1 µM (inactive).

For the compound `Oc1ccc(CNCc2ccccc2)c2cccnc12`, the GI50 is 0.294 µM (active) in assay [1]; 0.0384 µM (active) in assay [2]; 0.182 µM (active) in assay [3]; 0.217 µM (active) in assay [4]; 0.0853 µM (active) in [5]; 0.156 µM (active) in assay [6]. Moreover, the GI50 is 0.243 µM (active) in [7]; 0.336 µM (active) in [8]; 0.156 µM (active) in assay [9]; 0.215 µM (active) in assay [10]; 0.0291 µM (active) in [11]; 0.0594 µM (active) in assay [12]. The GI50 in [13] is 0.5 µM (active); in [14], 0.321 µM (active); in assay [15], 0.0308 µM (active); in assay [16] it was 0.116 µM (active); in [17], 0.0783 µM (active); in assay [18], 4.11 µM (inactive). Also, the GI50 in assay [19] was 0.11 µM (active).

`O=C(NC1=C(Cl)C(=O)c2ccccc2C1=O)C(=O)c1c(O)c2ccccc2oc1=O`: the GI50 in assay [1] is 3.21 µM (inactive); in assay [2], 5.74 µM (inactive); in [3], 3.4 µM (inactive); in assay [4], 1.16 µM (inactive); in assay [5] it was 5.46 µM (inactive); in assay [6] it was 1.53 µM (inactive). Also, the GI50 in [7] was 5.2 µM (inactive); in [8] it was 2.88 µM (inactive); in [9], 6.19 µM (inactive); in [10] it was 4.65 µM (inactive); in [11], 5.14 µM (inactive); in assay [12] it was 2.56 µM (inactive). Moreover, the GI50 was 2.3 µM (inactive) in [13]; 1.07 µM (active) in assay [14]; 2 µM (inactive) in assay [15]; 5.62 µM (inactive) in assay [16]; 4.83 µM (inactive) in [17]; 3.07 µM (inactive) in [18]. Also, in assay [19], the GI50 was 1.62 µM (inactive).

Source of the values: ChEMBL document CHEMBL1201862, “PubChem BioAssay data set” (2004).
